The source of these data is patent publication EP0745390A2, “Polymeric prodrugs for beta-lactamase and uses thereof” (priority 1995, dated 1996).

For data set [1], the target named is bL (Enterobacter cloacae, UniProt P05364). It is filed as biochemical. The note with it: 3-4 independently run experiments.
Data set [2] has as its system H2981 human lung adenocarcinoma cell line. The experiment in a line: In vitro cytotoxicity assay, incorporation of [^3H] thymidine into DNA. The class given is cell-based. The note with it: H2981 cells, non-conjugate treated, doxorubicin instead of PEG-AC-Dox (Figure 3).
For data set [3] the following is noted: in mice; cited from earlier work.
Data set [4] is described as follows: Toxicity in nude mice (maximum tolerated dose), single intravenous injection.

Sequence of bL (P05364 21-381): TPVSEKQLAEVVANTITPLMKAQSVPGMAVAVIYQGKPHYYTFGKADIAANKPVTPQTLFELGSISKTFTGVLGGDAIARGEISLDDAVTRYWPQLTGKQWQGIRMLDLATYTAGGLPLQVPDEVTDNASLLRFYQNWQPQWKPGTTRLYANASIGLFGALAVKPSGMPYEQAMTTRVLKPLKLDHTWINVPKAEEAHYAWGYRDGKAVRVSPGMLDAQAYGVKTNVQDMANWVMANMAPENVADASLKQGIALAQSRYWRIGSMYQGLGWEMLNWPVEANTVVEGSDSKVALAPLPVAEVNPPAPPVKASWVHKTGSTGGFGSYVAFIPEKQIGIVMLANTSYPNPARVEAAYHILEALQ

For `COc1cccc2c1C(=O)c1c(O)c3c(c(O)c1C2=O)C[C@@](O)(C(=O)CO)C[C@@H]3O[C@H]1C[C@H](NC(=O)OCC2=C(C(=O)O)N3C(=O)[C@@H](NC(=O)Cc4ccccc4)[C@H]3SC2)[C@H](O)[C@H](C)O1` [C-Dox, 7-phenylacetylcephalosporin doxorubicin], the Vmax in data set [1] (hydrolysis by bL in phosphate buffered saline containing bovine serum albumin) is on record as 400 ± 96 µmol/mim /mg. In data set [1] (hydrolysis by bL), the Michaelis-Menten constant (Km) was determined as 46 ± 6 µM and the kcat stood at 280 ± 67 s⁻¹.

Take `COc1cccc2c1C(=O)c1c(O)c3c(c(O)c1C2=O)C[C@@](O)(C(=O)CO)C[C@@H]3O[C@H]1C[C@H](N)[C@H](O)[C@H](C)O1` [doxorubicin]: in data set [2], the IC50 lay within 100 to 200 nM. In data set [3], the initial half life is listed as 2 min. The same compound yielded a maximum tolerated dose in data set [4] (nude mice, single intravenous injection, dose giving < 20% weight loss, no deaths) of 13.8 µmol/kg body weight. The MTD in data set [4] (nude, mouse, in vivo, iv) is 8 mg/kg.

A word on the Km: it is the substrate concentration at which the rate is half of its maximum. For orientation: kcat means the number of substrate molecules converted per active site and unit of time at saturation. The term IC50 denotes the point on the concentration scale where inhibition reaches its midpoint. Lower therefore signals inhibition by little substance. In general, MTD refers to the largest dose that counted as tolerated. Low readings indicate a narrow tolerated range, high ones a wide tolerated range.
